Patent US20230181768A1, “TISSUE-TARGETING COMPLEX” (PHARMPUR GMBH, priority 2017, published 2023)
“Also recorded” adds a separate entry of the source. Like-named read-outs stand apart in the source and are kept apart here.

How the values were obtained:
[1] = test system: ILM model substrate (silk granules); details: for binding to the model substrate (in words): UV/vis, before and after treatment with model substrate; for Ratio λmax with MS and reference 632-635 nm: 632 nm (7a), 634 nm (7b, 7d), 635 nm (7c)
Method: To examine the binding of various dyes to the ILM model substrate, UV/vis measurements of the dyes Brilliant Blue G (BBG), compounds 7a-d, and Indocyanine green (ICG) were performed at various concentrations both before and after treatment with the model substrate. The aim of these measurements is to compare the binding strength of the individual dyes.
Stock solutions of the dyes with a concentration of 5 mg/mL were prepared using phosphate-buffered saline (PBS) at physiological pH 7.4.
To ensure measurement is as accurate as possible, the dye-model substrate solutions and the references were not prepared separately, but likewise used as stock solutions.
Subsequently, 6 mg of ILM model substrate plus 6 mL of dye solution and a reference solution comprising only 6 mL of dye solution were stirred for exactly 10 minutes and then centrifuged together for 8 minutes at 6000 rpm. The solutions were photographed and the carefully decanted supernatants analyzed by UV/vis spectroscopy. The ratios of the absorption maxima λmax with the model substrate to the absorption maximum λmax of the reference were calculated. This allowed the binding strengths of the individual dyes to be compared.

[2] = Solubility / precipitation of dye in phosphate-buffered saline; type: physicochemical; details: PBS
From the text: Indocyanine green is one of the most important dyes in chromovitrectomy, particularly in the field of ILM peeling. The dye does, however, give rise to some problems and also to handling difficulties. Although it has long since been used for staining the inner limiting membrane and epiretinal membranes, studies have shown the dye to have numerous disadvantages.

SMILES | Ratio λmax with MS and reference 588 nm ([1]; 0.005 mg/mL in PBS pH 7.4) [%] | Ratio λmax with MS and reference 632-635 nm ([1]; 0.005 mg/mL in PBS pH 7.4) [%] | Ratio λmax with MS and reference 588 nm ([1]; 0.01 mg/mL in PBS pH 7.4) [%] | Ratio λmax with MS and reference 632-635 nm ([1]; 0.01 mg/mL in PBS pH 7.4) [%] | Ratio λmax with MS and reference 588 nm ([1]; 0.02 mg/mL in PBS pH 7.4) [%] | Ratio λmax with MS and reference 632-635 nm ([1]; 0.02 mg/mL in PBS pH 7.4) [%] | Ratio λmax with MS and reference 588 nm ([1]; 0.04 mg/mL in PBS pH 7.4) [%] | Ratio λmax with MS and reference 632-635 nm ([1]; 0.04 mg/mL in PBS pH 7.4) [%] | Ratio λmax with MS and reference 588 nm ([1]; 0.08 mg/mL in PBS pH 7.4) [%] | Ratio λmax with MS and reference 632-635 nm ([1]; 0.08 mg/mL in PBS pH 7.4) [%] | Ratio λmax with MS and reference 588 nm ([1]; 0.16 mg/mL in PBS pH 7.4) [%] | Ratio λmax with MS and reference 632-635 nm ([1]; 0.16 mg/mL in PBS pH 7.4) [%] | binding to the model substrate (in words) [1] | also measured
CCOc1ccc(Nc2ccc(/C(=C3C=C/C(=[N+](/CC)Cc4cccc(S(=O)(=O)[O-])c4)C=C/3C)c3ccc(N(CC)Cc4cccc(S(=O)(=O)[O-])c4)cc3C)cc2)cc1.[Na+] [BBG, Brilliant Blue G, reference compound] | – | – | – | – | – | – | – | – | – | – | – | – | good binding | binding of the dye ([1]; 0.005 mg/mL in PBS pH 7.4): 76%; Ratio λmax with MS and reference ([1]; 0.005 mg/mL in PBS pH 7.4, maximum about 585 nm): 24%; Ratio λmax with MS and reference ([1]; 0.01 mg/mL in PBS pH 7.4, maximum about 585 nm): 32%; Ratio λmax with MS and reference ([1]; 0.02 mg/mL in PBS pH 7.4, maximum about 585 nm): 44%; Ratio λmax with MS and reference ([1]; 0.04 mg/mL in PBS pH 7.4, maximum about 585 nm): 48%; binding of the dye ([1]; 0.08 mg/mL in PBS pH 7.4): 48%; Ratio λmax with MS and reference ([1]; 0.08 mg/mL in PBS pH 7.4, maximum about 585 nm): 62%
CC1(C)C(/C=C/C=C/C=C/C=C2\N(CCCCS(=O)(=O)O)c3ccc4ccccc4c3C2(C)C)=[N+](CCCCS(=O)(=O)[O-])c2ccc3ccccc3c21 [ICG, Indocyanine green, reference compound] | – | – | – | – | – | – | – | – | – | – | – | – | positive binding | Ratio λmax with MS and reference ([1]; 0.005 mg/mL in double-distilled water, 779/780 nm): 47%; Ratio λmax with MS and reference ([1]; 0.01 mg/mL in double-distilled water, 779/780 nm): 95%; Ratio λmax with MS and reference ([1]; 0.02 mg/mL in double-distilled water, 779/780 nm): 42%; Ratio λmax with MS and reference ([1]; 0.04 mg/mL in double-distilled water, 779/780 nm): 85%; solubility in saline solutions / phosphate-buffered saline [2]: poor solubility; also recorded: causes the compound to precipitate

Second part, led by results:

Ratio λmax with MS and reference 588 nm ([1]; 0.005 mg/mL in PBS pH 7.4) [%] | Ratio λmax with MS and reference 632-635 nm ([1]; 0.005 mg/mL in PBS pH 7.4) [%] | Ratio λmax with MS and reference 588 nm ([1]; 0.01 mg/mL in PBS pH 7.4) [%] | Ratio λmax with MS and reference 632-635 nm ([1]; 0.01 mg/mL in PBS pH 7.4) [%] | Ratio λmax with MS and reference 588 nm ([1]; 0.02 mg/mL in PBS pH 7.4) [%] | Ratio λmax with MS and reference 632-635 nm ([1]; 0.02 mg/mL in PBS pH 7.4) [%] | Ratio λmax with MS and reference 588 nm ([1]; 0.04 mg/mL in PBS pH 7.4) [%] | Ratio λmax with MS and reference 632-635 nm ([1]; 0.04 mg/mL in PBS pH 7.4) [%] | Ratio λmax with MS and reference 588 nm ([1]; 0.08 mg/mL in PBS pH 7.4) [%] | Ratio λmax with MS and reference 632-635 nm ([1]; 0.08 mg/mL in PBS pH 7.4) [%] | Ratio λmax with MS and reference 588 nm ([1]; 0.16 mg/mL in PBS pH 7.4) [%] | Ratio λmax with MS and reference 632-635 nm ([1]; 0.16 mg/mL in PBS pH 7.4) [%] | SMILES | binding to the model substrate (in words) [1] | also measured
12 | 13 | 7 | 8 | 3 | 4 | 3 | 3 | 1 | 2 | 18 | 18 | CCCCCCCCCCCC[N+](C)(C)CCCNc1ccc(NCCC[N+](C)(C)CCCCCCCCCCCC)c2c1C(=O)c1ccccc1C2=O [7d, N,N′(((9,10-dioxo-9,10-dihydroanthracene-1,4-diyl)bis(azanediyl))bis(propane-3,1-diyl))bis(N,N-dimethyldodecan-1-aminium) Bromide] | – | –
11 | 9 | 10 | 8 | 6 | 6 | 8 | 8 | 18 | 19 | 32 | 34 | CCCCCCCC[N+](C)(C)CCCNc1ccc(NCCC[N+](C)(C)CCCCCCCC)c2c1C(=O)c1ccccc1C2=O [7b, N,N′-(((9,10-dioxo-9,10-dihydroanthracene-1,4-diyl)bis(azanediyl))bis(propane-3,1-diyl))bis(N,N-dimethyloctan-1-aminium) bromide] | – | –
54 | 54 | 52 | 52 | 54 | 55 | 57 | 58 | 67 | 69 | 76 | 78 | CCCC[N+](C)(C)CCCNc1ccc(NCCC[N+](C)(C)CCCC)c2c1C(=O)c1ccccc1C2=O [7a, N,N′=(((9,10-dioxo-9,10-dihydroanthracene-1,4-diyl)bis(azanediyl))bis(propane-3,1-diy1))bis(N,N-dimethylbutan-1-aminium) bromide] | – | –
48 | 37 | 21 | 17 | 7 | 7 | 4 | 5 | 8 | 10 | 13 | 17 | CCCCCCCCCC[N+](C)(C)CCCNc1ccc(NCCC[N+](C)(C)CCCCCCCCCC)c2c1C(=O)c1ccccc1C2=O [7c, N,N′=(((9,10-dioxo-9,10-dihydroanthracene-1,4-diyl)bis(azanediyl))bis(propane-3,1-diyl))bis(N,N-dimethyldecan-1-aminium) Bromide] | – | –
